For assay [1], the target named is T1, neurotrophic receptor tyrosine kinase 3 (NTRK3) (Homo sapiens, UniProt Q16288).
T1 construct: endogenous in cells; host or cells: cultured cells treated intact (A549 per the earlier reading)
The assay is described as follows: Competitive site-specific PhosID-ABPP with XO44 in intact A549 cells. Type of assay: binding. The following applies: 0.1 nM to 25 µM inhibitor, pepsin. The method, then: (§1) 1e^6 cells were plated in 15 cm plates (Greiner) 3 days before treatment and kept in a humidified atmosphere with 5% CO2 at 37 °C. The growth medium was replaced by 10 ml treatment [DMEM with 0.5% FBS and 100 units/ml PS supplemented with the corresponding concentration of NVP-BHG712 (Sigma-Aldrich) or DMSO] and incubated at 37 °C, 5% CO2 for 3 h. Then, 10 μl 25 mM XO44 (PF-6808472, Sigma-Aldrich) was added directly to the medium and swirled to enable dissolution. Subsequently, the cells were incubated at 37 °C, 5% CO2 for 4 h. The samples for Supplemental Fig. S1 were generated by directly incubating with 25 μM XO44-containing growth medium for 4 h.
(§2) After treatment, the cells were washed with ice-cold DPBS and harvested using a cell scraper in 1 ml ice-cold DPBS. Then, the cell suspension was spun down at 2000g for 1 min, and the supernatant was aspirated. The cell pellet was snap-frozen in liquid nitrogen and stored at −80 °C for later use.
(§3) Cell pellets were lysed in 500 μl lysis buffer per 15 cm plate of cells, consisting of 50 mM Hepes (Sigma-Aldrich, pH 7.5), 0.5% NP-40 (Applichem), 0.2% SDS (Gen-Apex), 2 mM MgCl2 (Sigma-Aldrich), 10 mM NaCl (Merck), 1× protease inhibitor cocktail (Roche), and 0.5 μl/ml Benzonase (Millipore). Cell lysates were incubated at room temperature for 15 min to allow DNA cleavage. Cell debris and DNA were spun down for 30 min at 20,567g at 16 °C. The supernatant was collected, and the protein concentration was determined by a bicinchoninic acid assay (Thermo Fisher Scientific).
(§4) The copper(I)-catalyzed azide-alkyne cycloaddition (CuAAC) was performed on cellular lysates in 2 M urea (Merck) in 1× 50 mM Hepes (pH 7.5). CuAAC components were added in the following order: 5 mM tris(3-hydroxypropyltriazolylmethyl)amine (Lumiprobe), 2.5 mM CuSO4 5·H2O (Sigma-Aldrich), 500 μM phosphonate-azide (prepared as described in van Bergen et al., 2023 ([28])), and 25 mM sodium ascorbate (Sigma-Aldrich). Samples were incubated for 2 h at room temperature while rotating. Methanol–chloroform precipitation was performed to remove the CuAAC components, and the air-dried pellets were resuspended in 8 M urea and sonicated in a bioruptor (Diagenode) with the high amplitude setting for 10 min with cycles of 30 s on and 30 s off.
(§5) Clicked and dissolved protein samples were diluted to 4M urea with 50 mM ammonium bicarbonate (pH 8, AmBic, Sigma-Aldrich). The proteins were reduced with 4 mM DTT (Sigma-Aldrich) for 60 minutes at room temperature and alkylated in the dark using 8 mM iodoacetamide (Sigma-Aldrich) for 30 min. Residual iodoacetamide was quenched by adding DTT to a final concentration of 4 mM.
(§6) Next, samples were diluted 2× with 50 mM AmBic and digested with LysC (1:75 enzyme to protein ratio, Wako) for 4 h at 37 °C. Finally, proteins were digested overnight using Trypsin (1:50, enzyme to protein ratio, Sigma-Aldrich) at 37 °C. Proteolysis with chymotrypsin was performed similarly to the trypsin digestion, only replacing both proteolytic enzymes with α-chymotrypsin (bovine, 1:75, enzyme to protein ratio, Sigma-Aldrich) overnight at 37 °C. Digested material was desalted using 3 cc C18 Seppak cartridges (Waters) and air dried using a vacuum centrifuge.
(§7) For the digestion with pepsin, protease incubation (Porcine, 1:50, enzyme to protein ratio, Sigma-Aldrich) was performed for 4 h at 37 °C in 40 mM HCl (pH 2). Digested material was directly desalted using 3 cc C18 Seppak cartridges and air dried using a vacuum centrifuge.
(§8) Samples were dephosphorylated prior to immobilized metal affinity chromatography (IMAC) enrichment. Desalted peptides were dissolved in 1× rCutSmart buffer (pH 8, New England BioLabs) and incubated with 50 units of alkaline phosphatase (calf intestinal, QuickCIP, New England BioLabs) overnight at 37 °C while shaking. After dephosphorylation, all peptides were again desalted using 3 cc C18 Seppak cartridges and air-dried using a vacuum centrifuge. […]

The target in assay [2] is T2, inosine-5′-monophosphate dehydrogenase 2 (IMPDH2) (Homo sapiens, UniProt P12268).
T2 construct: endogenous in cells; host or cells: cultured cells treated intact (A549 per the earlier reading)
Described as above. Format: binding. The following applies: apparent IC50, competition with XO44 on lysine 450, n = 3, read-out: IC50 IMPDH2;K450. As to the method: as §1, §2, §3, §4, §5, §6, §7, §8

Assay [3] has as its target T3, EphB4 (Homo sapiens, UniProt P54760).
T3 construct: endogenous in cells; host or cells: cultured cells treated intact (A549 per the earlier reading)
T3 sequence (P54760 16-987): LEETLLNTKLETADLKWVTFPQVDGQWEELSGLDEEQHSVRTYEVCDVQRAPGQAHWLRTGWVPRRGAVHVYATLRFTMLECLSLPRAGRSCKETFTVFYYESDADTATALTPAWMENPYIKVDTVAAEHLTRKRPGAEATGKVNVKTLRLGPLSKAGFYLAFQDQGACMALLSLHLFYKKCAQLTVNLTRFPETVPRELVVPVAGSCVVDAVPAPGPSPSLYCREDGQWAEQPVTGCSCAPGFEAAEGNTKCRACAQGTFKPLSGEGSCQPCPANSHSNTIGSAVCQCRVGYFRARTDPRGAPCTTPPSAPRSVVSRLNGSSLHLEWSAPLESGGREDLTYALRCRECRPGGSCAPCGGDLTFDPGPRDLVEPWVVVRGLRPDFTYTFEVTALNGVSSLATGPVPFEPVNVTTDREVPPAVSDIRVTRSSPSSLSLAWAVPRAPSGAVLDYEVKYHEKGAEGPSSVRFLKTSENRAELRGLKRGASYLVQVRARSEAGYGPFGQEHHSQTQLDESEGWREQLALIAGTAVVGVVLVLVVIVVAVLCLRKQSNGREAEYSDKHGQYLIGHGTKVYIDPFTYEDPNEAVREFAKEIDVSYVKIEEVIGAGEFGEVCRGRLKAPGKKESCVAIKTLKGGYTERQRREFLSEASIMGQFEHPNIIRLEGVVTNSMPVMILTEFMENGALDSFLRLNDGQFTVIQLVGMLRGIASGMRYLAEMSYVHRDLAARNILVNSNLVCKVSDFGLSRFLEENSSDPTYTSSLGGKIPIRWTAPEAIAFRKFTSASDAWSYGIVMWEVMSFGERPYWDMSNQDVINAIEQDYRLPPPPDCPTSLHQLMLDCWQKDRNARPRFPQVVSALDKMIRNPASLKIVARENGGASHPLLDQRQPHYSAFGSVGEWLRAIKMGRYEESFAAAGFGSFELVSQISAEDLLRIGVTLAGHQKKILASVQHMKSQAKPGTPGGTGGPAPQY
The assay is described as above. Format: binding. The following applies: apparent IC50, 3 h inhibitor then 25 μM XO44 4 h, n = 3, read-out: IC50 EphB4;K647. The method, then:
as §1, §2, §3, §4, §5, §6, §7, §8

Assay [4] addresses T4, JAK1 (Homo sapiens, UniProt P23458).
T4 construct: endogenous in cells; host or cells: cultured cells treated intact (A549 per the earlier reading)
Described as above. Format: binding. The following applies: 0.1 nM to 25 µM inhibitor, trypsin and pepsin. As to the method: as §1, §2, §3, §4, §5, §6, §7, §8

The target of assay [5] is T5, proto-oncogene tyrosine-protein kinase src (SRC) (Homo sapiens, UniProt P12931).
T5 construct: endogenous in cells; host or cells: cultured cells treated intact (A549 per the earlier reading)
Described as above. Type of assay: binding. Particulars: 0.1 nM to 25 µM inhibitor, trypsin and pepsin. As to the method:
as §1, §2, §3, §4, §5, §6, §7, §8

Assay [6] deals with T6, MAP3K20 (Homo sapiens, UniProt Q9NYL2).
T6 construct: endogenous in cells; host or cells: cultured cells treated intact (A549 per the earlier reading)
Described as above. Type of assay: binding. Particulars: apparent IC50, unique peptide, n = 3, read-out: IC50 MAP3K20;K45. As to the method:
as §1, §2, §3, §4, §5, §6, §7, §8

For assay [7], the target named is T7, cyclin G–associated kinase (GAK) (Homo sapiens, UniProt O14976).
T7 construct: endogenous in cells; host or cells: cultured cells treated intact (A549 per the earlier reading)
T7 sequence (O14976 1-1311): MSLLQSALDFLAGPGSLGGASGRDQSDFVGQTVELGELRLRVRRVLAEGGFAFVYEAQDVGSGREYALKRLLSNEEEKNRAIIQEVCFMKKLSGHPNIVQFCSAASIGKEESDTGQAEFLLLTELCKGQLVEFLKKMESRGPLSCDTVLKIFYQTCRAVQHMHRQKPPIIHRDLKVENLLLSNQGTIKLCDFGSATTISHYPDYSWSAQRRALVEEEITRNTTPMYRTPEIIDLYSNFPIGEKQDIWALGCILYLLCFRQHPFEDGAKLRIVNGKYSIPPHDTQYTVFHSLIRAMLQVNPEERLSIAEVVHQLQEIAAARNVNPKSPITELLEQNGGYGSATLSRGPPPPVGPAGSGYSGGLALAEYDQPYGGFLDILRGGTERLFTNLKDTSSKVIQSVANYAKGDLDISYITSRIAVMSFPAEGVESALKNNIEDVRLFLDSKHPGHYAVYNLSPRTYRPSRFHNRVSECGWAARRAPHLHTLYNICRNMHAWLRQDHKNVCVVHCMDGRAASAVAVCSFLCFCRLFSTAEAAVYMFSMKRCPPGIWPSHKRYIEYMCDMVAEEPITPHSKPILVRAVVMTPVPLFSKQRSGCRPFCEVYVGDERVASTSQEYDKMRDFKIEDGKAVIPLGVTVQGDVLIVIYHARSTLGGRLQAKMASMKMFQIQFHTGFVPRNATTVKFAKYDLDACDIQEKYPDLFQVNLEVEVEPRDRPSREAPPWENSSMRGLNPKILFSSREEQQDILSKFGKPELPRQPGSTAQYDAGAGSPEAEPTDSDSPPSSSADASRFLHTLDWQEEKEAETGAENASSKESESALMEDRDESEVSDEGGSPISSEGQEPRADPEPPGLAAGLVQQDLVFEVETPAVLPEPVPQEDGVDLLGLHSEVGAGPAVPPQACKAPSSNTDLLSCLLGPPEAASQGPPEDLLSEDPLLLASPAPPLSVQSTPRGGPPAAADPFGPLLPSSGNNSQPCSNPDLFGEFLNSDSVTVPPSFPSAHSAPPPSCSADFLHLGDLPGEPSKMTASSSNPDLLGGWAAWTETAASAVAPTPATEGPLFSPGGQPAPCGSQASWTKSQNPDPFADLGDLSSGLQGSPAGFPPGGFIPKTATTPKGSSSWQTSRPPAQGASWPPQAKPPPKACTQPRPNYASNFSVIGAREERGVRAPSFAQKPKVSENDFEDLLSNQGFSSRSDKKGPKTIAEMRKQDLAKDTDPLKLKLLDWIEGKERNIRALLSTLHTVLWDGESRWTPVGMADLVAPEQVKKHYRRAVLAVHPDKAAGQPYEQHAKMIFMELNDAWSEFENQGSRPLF
Described as above. Format: binding. The method, then:
as §1, §2, §3, §4, §5, §6, §7, §8

Assay [8] addresses T8, JAK2 (Homo sapiens, UniProt O60674).
T8 construct: endogenous in cells; host or cells: cultured cells treated intact (A549 per the earlier reading)
The description is as above. Type of assay: binding. Particulars: 0.1 nM to 25 µM inhibitor, trypsin and pepsin. As to the method:
as §1, §2, §3, §4, §5, §6, §7, §8

The test system of assay [9] is EphA2. The arrangement: method as in PMID 29928781. Particulars: read-out: Literature value for EphA2, NanoBRET assay; cited from earlier work.

Several values for one entry are separate records, joined by “and”; a condition that tells them apart may be missing. Identical values can stand only once. Like-named read-outs stand apart in the source and are kept apart here.

T4 sequence (P23458 whole entry): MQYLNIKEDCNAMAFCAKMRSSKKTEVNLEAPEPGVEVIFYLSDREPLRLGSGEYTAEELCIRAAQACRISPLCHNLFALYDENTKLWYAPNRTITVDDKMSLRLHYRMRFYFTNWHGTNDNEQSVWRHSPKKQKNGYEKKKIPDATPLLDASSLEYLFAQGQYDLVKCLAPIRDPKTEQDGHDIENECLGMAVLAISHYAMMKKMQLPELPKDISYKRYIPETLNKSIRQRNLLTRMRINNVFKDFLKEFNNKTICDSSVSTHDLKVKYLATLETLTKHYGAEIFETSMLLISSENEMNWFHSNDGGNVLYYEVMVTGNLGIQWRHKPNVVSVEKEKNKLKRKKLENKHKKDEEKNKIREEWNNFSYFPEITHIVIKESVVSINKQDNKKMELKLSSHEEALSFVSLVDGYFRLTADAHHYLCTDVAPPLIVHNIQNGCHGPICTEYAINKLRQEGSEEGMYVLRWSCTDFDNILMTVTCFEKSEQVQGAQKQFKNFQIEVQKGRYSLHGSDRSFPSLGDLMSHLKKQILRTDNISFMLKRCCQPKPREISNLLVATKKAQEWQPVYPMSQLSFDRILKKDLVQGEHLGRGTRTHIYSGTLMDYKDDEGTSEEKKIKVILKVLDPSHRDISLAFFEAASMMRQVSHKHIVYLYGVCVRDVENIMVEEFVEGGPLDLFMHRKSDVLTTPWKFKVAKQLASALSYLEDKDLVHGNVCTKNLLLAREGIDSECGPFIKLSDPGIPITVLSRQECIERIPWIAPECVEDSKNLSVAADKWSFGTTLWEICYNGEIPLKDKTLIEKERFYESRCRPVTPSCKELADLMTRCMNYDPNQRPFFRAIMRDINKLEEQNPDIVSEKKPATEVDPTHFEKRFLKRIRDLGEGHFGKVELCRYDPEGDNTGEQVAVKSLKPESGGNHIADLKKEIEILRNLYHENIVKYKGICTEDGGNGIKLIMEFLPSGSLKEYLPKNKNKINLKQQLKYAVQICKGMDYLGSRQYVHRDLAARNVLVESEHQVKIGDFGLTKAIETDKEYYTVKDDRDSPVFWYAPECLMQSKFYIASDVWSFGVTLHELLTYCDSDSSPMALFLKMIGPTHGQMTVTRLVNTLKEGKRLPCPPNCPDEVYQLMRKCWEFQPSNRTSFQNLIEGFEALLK
T1 sequence (Q16288 32-839): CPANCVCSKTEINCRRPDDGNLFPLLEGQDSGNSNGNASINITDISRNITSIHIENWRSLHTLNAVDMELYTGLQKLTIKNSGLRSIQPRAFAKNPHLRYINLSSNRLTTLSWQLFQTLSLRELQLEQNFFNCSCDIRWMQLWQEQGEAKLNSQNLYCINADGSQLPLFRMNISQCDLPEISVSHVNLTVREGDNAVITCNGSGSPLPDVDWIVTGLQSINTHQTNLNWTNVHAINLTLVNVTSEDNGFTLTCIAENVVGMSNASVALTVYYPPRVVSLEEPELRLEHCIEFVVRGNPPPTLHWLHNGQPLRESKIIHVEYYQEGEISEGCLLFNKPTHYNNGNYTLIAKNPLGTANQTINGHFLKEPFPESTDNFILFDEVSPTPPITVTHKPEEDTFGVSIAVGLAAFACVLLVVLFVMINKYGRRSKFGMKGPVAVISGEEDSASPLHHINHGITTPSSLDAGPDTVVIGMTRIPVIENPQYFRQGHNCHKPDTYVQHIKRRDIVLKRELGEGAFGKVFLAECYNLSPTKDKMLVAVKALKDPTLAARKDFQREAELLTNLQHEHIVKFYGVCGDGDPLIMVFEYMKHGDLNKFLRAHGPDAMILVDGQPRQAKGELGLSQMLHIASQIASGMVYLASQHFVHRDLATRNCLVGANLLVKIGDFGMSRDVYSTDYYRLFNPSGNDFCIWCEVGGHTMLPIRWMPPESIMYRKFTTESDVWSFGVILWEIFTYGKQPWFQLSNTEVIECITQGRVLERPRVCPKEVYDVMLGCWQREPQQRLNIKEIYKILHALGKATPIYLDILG
T8 sequence (O60674 whole entry): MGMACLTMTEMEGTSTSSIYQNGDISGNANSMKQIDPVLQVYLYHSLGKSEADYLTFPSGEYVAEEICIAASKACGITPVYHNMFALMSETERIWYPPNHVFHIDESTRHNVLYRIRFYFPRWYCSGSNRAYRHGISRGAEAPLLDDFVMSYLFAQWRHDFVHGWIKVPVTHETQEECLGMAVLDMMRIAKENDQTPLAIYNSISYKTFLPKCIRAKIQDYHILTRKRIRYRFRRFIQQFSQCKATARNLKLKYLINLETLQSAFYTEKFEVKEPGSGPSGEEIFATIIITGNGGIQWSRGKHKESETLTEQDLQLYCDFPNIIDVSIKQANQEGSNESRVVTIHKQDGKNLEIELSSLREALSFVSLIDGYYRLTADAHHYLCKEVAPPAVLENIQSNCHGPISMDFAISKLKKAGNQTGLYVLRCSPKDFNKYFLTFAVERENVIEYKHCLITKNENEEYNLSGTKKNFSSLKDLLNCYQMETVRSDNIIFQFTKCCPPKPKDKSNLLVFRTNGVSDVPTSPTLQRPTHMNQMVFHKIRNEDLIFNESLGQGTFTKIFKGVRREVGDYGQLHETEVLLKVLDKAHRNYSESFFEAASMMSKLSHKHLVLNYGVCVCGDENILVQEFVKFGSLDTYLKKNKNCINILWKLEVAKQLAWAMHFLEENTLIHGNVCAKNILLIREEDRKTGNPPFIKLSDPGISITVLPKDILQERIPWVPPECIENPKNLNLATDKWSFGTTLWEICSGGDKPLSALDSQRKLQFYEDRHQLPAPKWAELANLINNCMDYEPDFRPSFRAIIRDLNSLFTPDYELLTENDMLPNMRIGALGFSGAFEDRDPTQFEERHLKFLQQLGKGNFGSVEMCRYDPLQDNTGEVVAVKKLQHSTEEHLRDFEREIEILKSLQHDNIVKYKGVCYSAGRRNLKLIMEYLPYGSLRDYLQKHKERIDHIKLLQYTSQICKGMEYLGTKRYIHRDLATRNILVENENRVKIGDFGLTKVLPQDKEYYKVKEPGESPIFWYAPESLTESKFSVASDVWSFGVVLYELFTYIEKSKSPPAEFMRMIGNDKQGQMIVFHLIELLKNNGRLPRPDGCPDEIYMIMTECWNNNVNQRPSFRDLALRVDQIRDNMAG
T2 sequence (P12268 2-514 limits assumed): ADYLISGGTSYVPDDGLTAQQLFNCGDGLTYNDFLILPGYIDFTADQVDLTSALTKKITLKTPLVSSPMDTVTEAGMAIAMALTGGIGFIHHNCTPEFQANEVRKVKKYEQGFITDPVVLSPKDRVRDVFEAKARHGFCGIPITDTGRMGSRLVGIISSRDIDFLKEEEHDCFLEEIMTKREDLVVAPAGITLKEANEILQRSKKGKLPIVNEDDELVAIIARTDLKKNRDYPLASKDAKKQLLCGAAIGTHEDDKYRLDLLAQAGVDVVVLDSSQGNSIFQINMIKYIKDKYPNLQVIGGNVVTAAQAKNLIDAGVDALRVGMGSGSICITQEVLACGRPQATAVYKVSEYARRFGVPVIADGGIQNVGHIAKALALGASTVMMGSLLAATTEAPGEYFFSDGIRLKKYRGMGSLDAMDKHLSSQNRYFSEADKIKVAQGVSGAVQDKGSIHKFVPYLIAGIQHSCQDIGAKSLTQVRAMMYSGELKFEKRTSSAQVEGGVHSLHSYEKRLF

For NVP-BHG712, the “MaxLFQ signal of XO44-bound NTRK3;K572 over the concentration range” value in [1] was “stable MaxLFQ signal over the full concentration range”. The IC50 in assay [2] was 9600 nM; in [3] it was 20 nM and 20.2 nM; in assay [6], 2900 nM; in assay [7] (apparent IC50, lysine 69 in ATP pocket, n = 3, read-out: IC50 GAK;K69), 9400 nM; in [7] (apparent IC50, lysine 175 in ATP pocket, n = 3, read-out: IC50 GAK;K175), 13000 nM; in assay [9], 3 nM. The “Interaction with ATP-binding pocket, JAK1;K908 signal across the concentration range” value in assay [4] is “do not interact”. In addition, the “Interaction with ATP-binding pocket, SRC;K298 signal across the concentration range” value in assay [5] is listed as “do not interact”. Moreover, in assay [8], the “Interaction with ATP-binding pocket, JAK2;K882 signal across the concentration range” value is “do not interact”.

Values taken from publication PMC11889359, “Site-Specific Competitive Kinase Inhibitor Target Profiling Using Phosphonate Affinity Tags” (Molecular & Cellular Proteomics : MCP, 2025).
